Source: patent publication US8962855B2 (priority 2011, dated 2015)

What was measured:
[1] = system: RPMI-8226; assay: cells; format: cell-based, human; conditions: for IC50: Homo sapiens, RPMI-8226, 48 h, read-out: IC50, cellular anti-proliferative assay
[2] = biological target: T1, CDK2/cyclin E (Homo sapiens, UniProt P24941); assay: biochemical
T1 construct: C-terminal 6His-tagged, recombinant full-length CDK2 (MW=34 kDa); made in house; host or cells: Sf21 insect cells (baculovirus)

[3] = system: SW-620; assay: cells; format: cell-based, human; conditions: for IC50: Homo sapiens, SW-620, 48 h, read-out: IC50, cellular anti-proliferative assay
[4] = system: M14; assay: cells; format: cell-based, human; conditions: for IC50: Homo sapiens, M14, 48 h, read-out: IC50, cellular anti-proliferative assay
[5] = system: KM12; assay: cells; format: cell-based, human; conditions: for IC50: Homo sapiens, KM12, 48 h, read-out: IC50, cellular anti-proliferative assay
[6] = system: HT29; assay: cells; format: cell-based, human; conditions: for IC50: Homo sapiens, HT-29, 48 h, read-out: IC50, cellular anti-proliferative assay
[7] = system: MDA-MB-435; assay: cells; format: cell-based, human; conditions: for IC50: Homo sapiens, MDA-MB-435, 48 h, read-out: IC50, cellular anti-proliferative assay
[8] = biological target: T2, CDK3/cyclin E (Homo sapiens, UniProt Q00526); assay: biochemical
T2 construct: C-terminal 6His-tagged recombinant human full-length cdk3 (MW=36 kDa); made in house; host or cells: Sf21 insect cells (baculovirus)

[9] = system: MDA-MB-231; assay: cells; format: cell-based, human; conditions: for IC50: Homo sapiens, MDA-MB-231, 48 h, read-out: IC50, cellular anti-proliferative assay
[10] = system: HS 578T; assay: cells; format: cell-based, human; conditions: for IC50: Homo sapiens, Hs-578T, 48 h, read-out: IC50, cellular anti-proliferative assay
[11] = biological target: T3, CDK9/cyclin T1 (Homo sapiens, UniProt P50750); assay: biochemical
T3 construct: C-terminal 6His-tagged, full-length recombinant, human cdk9 (MW=44 kDa); made in house; host or cells: Sf21 insect cells (baculovirus)

[12] = system: NCI-H322M; assay: cells; format: cell-based, human; conditions: for IC50: Homo sapiens, NCI-H322M, 48 h, read-out: IC50, cellular anti-proliferative assay
[13] = system: IGROV1; assay: cells; format: cell-based, human; conditions: for IC50: Homo sapiens, IGROV-1, 48 h, read-out: IC50, cellular anti-proliferative assay

T3 sequence (P50750 whole entry): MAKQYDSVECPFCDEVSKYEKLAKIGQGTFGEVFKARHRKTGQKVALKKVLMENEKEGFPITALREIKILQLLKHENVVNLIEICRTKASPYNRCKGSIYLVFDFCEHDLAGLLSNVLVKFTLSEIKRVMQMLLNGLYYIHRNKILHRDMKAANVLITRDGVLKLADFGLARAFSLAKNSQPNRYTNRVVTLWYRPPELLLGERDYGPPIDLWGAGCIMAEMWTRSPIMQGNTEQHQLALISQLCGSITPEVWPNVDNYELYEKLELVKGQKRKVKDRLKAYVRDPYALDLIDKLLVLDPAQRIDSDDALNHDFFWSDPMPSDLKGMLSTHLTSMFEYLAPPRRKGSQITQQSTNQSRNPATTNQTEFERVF
T3 sequence (O60563 whole entry partner): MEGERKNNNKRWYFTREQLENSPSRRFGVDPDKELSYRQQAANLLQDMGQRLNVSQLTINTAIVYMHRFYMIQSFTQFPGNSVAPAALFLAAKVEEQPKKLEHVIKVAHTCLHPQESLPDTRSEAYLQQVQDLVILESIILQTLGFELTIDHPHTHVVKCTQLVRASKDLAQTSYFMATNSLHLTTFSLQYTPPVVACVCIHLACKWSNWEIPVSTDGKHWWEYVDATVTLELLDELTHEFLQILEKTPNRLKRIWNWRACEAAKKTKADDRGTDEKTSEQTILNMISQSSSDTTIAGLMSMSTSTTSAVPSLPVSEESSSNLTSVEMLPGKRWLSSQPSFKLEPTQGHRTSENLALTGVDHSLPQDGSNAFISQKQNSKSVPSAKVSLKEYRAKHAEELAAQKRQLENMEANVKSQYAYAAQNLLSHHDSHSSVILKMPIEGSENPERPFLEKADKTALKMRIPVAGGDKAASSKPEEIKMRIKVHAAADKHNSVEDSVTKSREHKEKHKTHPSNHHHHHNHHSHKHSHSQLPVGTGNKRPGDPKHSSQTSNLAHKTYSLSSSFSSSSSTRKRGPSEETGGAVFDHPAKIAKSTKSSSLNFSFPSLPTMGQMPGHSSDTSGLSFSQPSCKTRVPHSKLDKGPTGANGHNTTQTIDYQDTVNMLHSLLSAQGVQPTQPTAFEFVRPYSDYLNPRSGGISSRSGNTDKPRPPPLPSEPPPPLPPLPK
T2 sequence (Q00526 whole entry): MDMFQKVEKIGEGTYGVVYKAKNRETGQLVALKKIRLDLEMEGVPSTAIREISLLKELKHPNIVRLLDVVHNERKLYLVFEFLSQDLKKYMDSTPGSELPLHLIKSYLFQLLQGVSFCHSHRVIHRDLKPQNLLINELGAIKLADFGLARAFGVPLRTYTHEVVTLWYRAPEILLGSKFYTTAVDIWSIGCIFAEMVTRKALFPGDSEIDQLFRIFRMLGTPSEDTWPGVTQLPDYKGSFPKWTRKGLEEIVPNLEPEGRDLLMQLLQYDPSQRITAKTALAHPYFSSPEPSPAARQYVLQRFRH
T2 sequence (P24864 whole entry, further chain): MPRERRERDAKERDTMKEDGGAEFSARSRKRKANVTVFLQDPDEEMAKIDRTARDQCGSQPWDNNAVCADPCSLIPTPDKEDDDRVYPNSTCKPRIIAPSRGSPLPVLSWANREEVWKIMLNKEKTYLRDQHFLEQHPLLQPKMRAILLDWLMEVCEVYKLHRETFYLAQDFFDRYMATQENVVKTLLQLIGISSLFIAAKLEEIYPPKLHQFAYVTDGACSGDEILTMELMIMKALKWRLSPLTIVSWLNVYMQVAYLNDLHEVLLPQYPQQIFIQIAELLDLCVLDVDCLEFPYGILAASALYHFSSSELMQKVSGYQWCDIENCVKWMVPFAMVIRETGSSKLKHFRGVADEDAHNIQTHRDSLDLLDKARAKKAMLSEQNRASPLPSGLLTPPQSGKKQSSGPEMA

SMILES	IC50 [1] [nM]	IC50 [3] [nM]	IC50 [4] [nM]	IC50 [5] [nM]	IC50 [6] [nM]	IC50 [7] [nM]	IC50 [9] [nM]	IC50 [10] [nM]	IC50 [12] [nM]	IC50 [13] [nM]	further results
CC(C)(C)c1cnc(CSc2cnc(NC(=O)Cc3ccc(N(CCCl)CCCl)cc3)s2)o1 [CY-201, 2-(4-(bis(2-chloroethyl)amino)phenyl)-N-(5-((5-tert-butyloxazol-2-yl)methylthio)thiazol-2-yl)acetamide]	269	98	58	91	107	79	219	148	148	107	Ratio [1]: 280.5; IC50 [2]: 2.7 nM; Ratio [3]: 895.4; Ratio [4]: 1083.9; Ratio [5]: 1570.4; Ratio [6]: 1227.4; Ratio [7]: 1577.6; fold more potent than the parental drug Chlorambucil [7]: more than 1,500 fold; IC50 [8]: 45.6 nM; Ratio [9]: 727.8; Ratio [10]: 1273.5; IC50 [11]: 90.4 nM; Ratio [12]: 1380.4; Ratio [13]: 1088.9
O=C(O)CCCc1ccc(N(CCCl)CCCl)cc1 [Chlorambucil, reference compound]	75500	87500	62400	143000	132000	125000	159000	188000	204000	117000	CDK IC50, CDK2/cyclin E (Chlorambucil) [2]: No activity; CDK IC50, CDK3/cyclin E (Chlorambucil) [8]: No activity; CDK IC50, CDK9/cyclin T1 (Chlorambucil) [11]: No activity
